Test results published in paper PMC8129988 (Inorganic Chemistry Frontiers, 2021).
Structures can show the parent of a compound that is named as a salt.

How the values were obtained:
Assay type in all cases: cell-based, human
UM-UC-14 cells = assay: MTT vitality assay, 72 h; conditions: TFA up to 25 μM
Description: The sensitizing effect in this cell model was more pronounced for Co(acac)2LPonvs.Co(Meacac)2LPon reflecting the differences in the reduction potentials. Purification of the novel compounds was performed in the presence of 0.1% TFA, leading to the respective TFA salts.
As mentioned above, two stereoisomers of Co(acac)2LPon could be isolated. To clarify, whether there are differences in their anticancer activity, they were analyzed (in addition to the isomeric mixture) in UM-UC-14 cells by MTT assay. […] Accordingly, values for the isomeric mixture positioned intermediate. As expected, both stereoisomers and the isomeric mixture were distinctly activated by hypoxic conditions. The moderately higher activity of isomer 1 remained also under hypoxic conditions (Fig. S12A ^†). […]
Cells were seeded (3–7 × 10^4 cells per well) in 96-well plates and after 24 h recovery treated with increasing concentrations of compounds in triplicates. After 72 h drug exposure under normoxic or hypoxic cell culture conditions (0.1% O2) (ProOx Model C21 system, BioSpherix), the proportion of viable cells was determined by 3-(4,5-dimethylthiazol-2-yl)-2,5-diphenyltetrazolium bromide (MTT)-vitality assay (EZ4U, Biomedica, Vienna, Austria) or by luminescence assay based on adenosine triphosphate quantification (CellTiter-Glo, Promega, Madison, Wisconsin) following the manufacturer's recommendations. […]

[1] = test system: FGFR3-driven UM-UC-14 urothelial cancer cell model; assay: colony formation assay, 5 d; conditions: normoxic
Description: In order to investigate the impact of long-term oxygen restriction, clonogenic assays were performed in the FGFR3-dependent UM-UC-14 cell model (Fig. 9C).
UM-UC-14 cells were seeded at low densities of 3 × 10^3 cells per well in 24-well plates in 500 μL and after 24 h recovery treated with 100 μL of increasing concentrations of compounds in duplicates. Following drug exposure time of 5 days under normoxic or hypoxic (0.1% O2) culture conditions, cells were washed with phosphate-buffered saline (PBS), fixed with ice-cold methanol for 30 min at 4 °C and stained with crystal violet. Digital photographs were taken using a Nikon D3200 camera and processed with ImageJ software. For quantification, crystal violet was eluted using 2% sodium dodecyl sulfate (SDS) and color absorbance was measured at 560 nm at the Tecan infinite 200Pro (Zurich, Switzerland). Values are given in arbitrary units (a.u.) as mean ± SD normalized to untreated control.

[2] = test system: p-ERK1/2 and p-S6 in K-562 cells; assay: western blot of downstream signalling, 12 h; conditions: K-562, 12 h, western blot
Description: Fig. 10 Impact of the cobalt(III) complexes on the ERK1/2 and S6 under normoxic and hypoxic conditions. K-562 cells were treated with the compounds, after 12 h cell lysates were prepared and protein expression as well as phosphorylation levels of downstream pathways (p-ERK1/2 and p-S6) analyzed by western blotting. One representative experiment out of three is shown. The ratio of phosphorylated to total protein is given between the respective lanes.
K-562 cells were plated (5 × 10^5 cells per well) in 6-well plates and allowed to recover for 24 h. Subsequently, the cells were treated with the drugs in different concentrations. After 12 h cells were harvested, proteins were isolated, resolved by sodium dodecyl sulfate polyacrylamide gel electrophoresis (SDS/PAGE), and transferred onto a polyvinylidene difluoride membrane for western blotting. The following antibodies were used: ERK1/2 (p44/42) rabbit monoclonal antibody (mAb) (137F5, #4695), phospho-ERK1/2 rabbit mAb (Thr202/Tyr204) (20G11, #4376), phospho-S6 rabbit pAb (Ser240/244, #2215) (Cell Signaling Technology, Beverly, MA, USA), S6 mouse mAb (C-8. #sc-74459) (Santa Cruz Biotechnology, TX, USA) and β-actin mouse mAb (#A5441, Sigma). All primary antibodies were used in 1 : 1000 dilutions (in Tris-buffered saline containing 0.1% Tween20 (TBST) + 3% bovine serum albumin (BSA)). Secondary goat anti-mouse-IgG (Fc specific)-peroxidase antibody (#A0168, Sigma) and horseradish peroxidase(HRP)-labeled mouse anti-rabbit IgG (#sc-2357, Santa Cruz Biotechnology) were used at working dilutions of 1 : 10 000 (in TBST + 1% BSA).

Structure (SMILES)	impact on cell viability (UM-UC-14 cells)	inhibition of clonogenic cell growth [1] [%]	activity on ERK1/2 and S6 phosphorylation, normoxic vs hypoxic [2]
O=C(O)C(F)(F)F [TFA, trifluoroacetic acid]	no impact on cell viability		
Cc1ccc(C(=O)Nc2ccc(CN3CCN(C)CC3)c(C(F)(F)F)c2)cc1C#Cc1cnc2cccnn12 [ponatinib, reference compound]		95	equally active under the two oxygen conditions
